These results are taken from patent publication US4172894A, “3-Thienyl-3-methyl-4-pentyl-2-pyridyl-ketone” (Laboratories Made, S.A., priority 1977, dated 1979).

The nature of series [1]: Acute toxicity in mice, intraperitoneal, deaths counted 48 hours after treatment (Litchfield-Wilcoxon). Also on record: species or system Swiss I.C.R. albino mice. As to conditions: mouse, in vivo, ip, deaths at 48 hours, Litchfield-Wilcoxon test. The procedure: Acute toxicity study was made in Swiss I.C.R. albino mice of both sexes of 30±2 g of weight, kept without food for 24 hours prior to the experiment. Ambient temperature and relative humidity were kept constant. The products were administered intraperitoneally, and 48 hours after treatment the number of deaths was counted. Calculation of the lethal dose (LD50) was made by the Litchfield-Wilcoxon test.

Series [2] relates to Swiss I.C.R. albino mice. The series can be described thus: Thermal analgesia, 55° C. "hot plate" technique in mice. The conditions noted are these: 30 mg/kg, intraperitoneal, 30 minutes before 55° C. hot plate; control 38 ± 4.253. The format is in vivo. The procedure:
The thermal analgesic effect was studied in Swiss I.C.R. albino mice. The 55° C. "hot plate" technique was used. Batches of 10 mice were made.
The products in study were administered intraperitoneally and after 30 minutes the mice were placed on the "hot plate", note having been made, in seconds, of the time it took them to jump. Batches of control animals were injected with only distilled water.

Series [3] has as its system Swiss I.C.R. albino mice. The series can be described thus: Chemical analgesia, acetic acid writhing technique in mice. As to conditions: 25 mg/kg, intraperitoneal, 30 minutes before 0.25 ml of 1% acetic acid; counted 20 minutes later; control 121.5 ± 7.184. The format is in vivo. The procedure:
The analgesic effect was studied in Swiss I.C.R. albino mice with the acetic acid writhing technique. Batches of 10 mice were made.
The products in study were administered intraperitoneally, and 30 minutes later 0.25 ml of 1% acetic acid were injected intraperitoneally. A batch of control animals received only the acetic acid. Twenty minutes following administration of the acetic acid, the number of writhes in each mouse is counted.

With `CCCCCc1ccnc(C(=O)c2ccsc2)c1C` [Product I, 3-thienyl-3-methyl-4-pentyl-2-pyridyl-ketone], in series [1], the median lethal dose (LD50) (commonly the dose at which mortality reaches 50%) at 48 h turned out to be 718 mg/kg. Also, in the series on Swiss I.C.R. albino mice [2], the “Jumping time (mean ± S.E.M.)” value stood at 96.7 see. Moreover, the “No. of writhes (mean ± S.E.M.)” value in the series on Swiss I.C.R. albino mice [3] turned out to be 35.75.

`CCC(=O)O[C@](Cc1ccccc1)(c1ccccc1)[C@H](C)CN(C)C` [Dextropropoxyphene, dextropropoxyphene]: in series [1], the 50% lethal dose (LD50) at 48 h came out at 140 mg/kg. Besides, the “Jumping time (mean ± S.E.M.)” value with Swiss I.C.R. albino mice [2] was 83.7 see. The “No. of writhes (mean ± S.E.M.)” value in the series with Swiss I.C.R. albino mice [3] is 62.8.
